As a reminder, the pKi is the Ki on a negative log10 scale, so that one unit is a factor of ten. A high value points to a small Ki.

SMILES strings stand for the structures. pKi: −log10 of the molar value.

For 31 compounds, inhibition in vivo and Ki results are on record in patent publication US5538985A, “Pyrrolidinone derivatives” (Mitsui Toatsu Chemicals, Inc., priority 1994, dated 1996).

T1 sequence (Q9R0C9 whole entry): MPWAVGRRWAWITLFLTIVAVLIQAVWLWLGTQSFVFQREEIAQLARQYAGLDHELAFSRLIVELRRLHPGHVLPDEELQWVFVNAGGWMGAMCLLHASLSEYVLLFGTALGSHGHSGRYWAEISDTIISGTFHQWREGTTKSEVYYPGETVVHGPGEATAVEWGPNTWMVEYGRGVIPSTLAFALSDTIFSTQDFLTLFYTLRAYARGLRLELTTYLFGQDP

One assay relates to mAMP-induced hyperkinesia. Kind of assay: inhibition of methamphetamine (mAMP)-induced hyperkinesia in mice (Pharmacological Test 2). The assay is classed as in vivo, mice (ddy male). Particulars: Mus musculus, sc, 0.5 h; test drug 10 mg/kg peritoneally; methamphetamine 1.5 mg/kg subcutaneously; motion measured for 30 minutes; read-out: Inhibition rate of mAMP-induced hyperkinesia (%). The method, then:
Using mice, antipsychotic activities were investigated in terms of hyperkinesia induced by methamphetamine. For the experiment, ten 5 weeks-old ddy male mice (NIHON S.L.C K.K.) were used per each group. Immediately after each mouse was peritoneally administered at 10 mg/kg with the corresponding test drug, the mouse was placed in a photocell cage for measurement. The amount of motion was measured for 30 minutes (the first measurement: this was recorded as the action of the test drug for the active movement). Thereafter, the mouse was once taken out of the cage and subcutaneously administered at 1.5 mg/kg with methamphetamine. The mouse was then returned to the same cage and the amount of motion was measured for 30 minutes. An average amount of motion of each group was determined based on the amounts of motion after the administration of methamphetamine (mAMP) as obtained by the second measurement, and the inhibition rate (%) of hyperkinesia was calculated in accordance with the following formula: [formula]
The group to which the test drug was administered: the test drug+methamphetamine
Control group: vehicle+methamphetamine
Normal group: vehicle+saline
Regarding `CC1CCN(CC2CCN(c3ccc(Cl)c(Cl)c3)C2=O)CC1` (stereo not shown) [Example 33], the inhibition in vivo at 10 mg/kg is 53%.

With `O=C1C(CN2CCCCCC2)CCN1c1ccc(F)cc1` (stereo not shown) [Example 53], the inhibition in vivo at 10 mg/kg was determined as 62%.

Take `O=C1CC(CN2CCCCC2)CN1c1ccc(F)cc1` (stereo not shown) [Example 37]: the inhibition in vivo at 10 mg/kg came to 62%.

For `CC1CC(C)CN(CC2CCN(c3ccc(Cl)cc3)C2=O)C1` (stereo not shown) [Example 56], the inhibition in vivo at 10 mg/kg came out at 76%.

Regarding `CCc1ccc(N2CC(CN3CCCCC3)CC2=O)cc1` (stereo not shown) [Example 39], the inhibition in vivo at 10 mg/kg is 54%.

As for `CC1CCN(CC2CC(=O)N(c3ccc(Cl)cc3)C2)CC1` (stereo not shown) [Example 81], the inhibition in vivo at 10 mg/kg worked out at 53%.

Take `O=C1C(CN2CCCCCC2)CCN1c1ccc(-c2ccccc2)cc1` (stereo not shown) [Example 70]: the inhibition in vivo at 10 mg/kg is 66%.

`O=C1C(CN2CCCCCC2)CCN1c1ccc(Cl)cc1` (stereo not shown) [Example 1]: the inhibition in vivo at 10 mg/kg was found to be 55%.

For `O=C1C(CN2CCCCC2)CCN1c1ccc(Cl)cc1` (stereo not shown) [Example 23], the inhibition in vivo at 10 mg/kg amounted to 54%.

For the compound `O=C1C(CN2CCCC2)CCN1c1ccc(Cl)cc1` (stereo not shown) [Example 36], the inhibition in vivo at 10 mg/kg stood at 56%.

Consider `CC1CCN(CC2CCN(c3ccc(Cl)cc3)C2=O)CC1` (stereo not shown) [Example 26], for which the inhibition in vivo at 10 mg/kg stood at 56%.

As for `O=C1C(CN2CCC(O)CC2)CCN1c1ccc(Cl)cc1` (stereo not shown) [Example 40], the inhibition in vivo at 10 mg/kg was 73%.

Turning to `COC1CCN(CC2CCN(c3ccc(Cl)cc3)C2=O)CC1` (stereo not shown) [Example 75], the inhibition in vivo at 10 mg/kg is 66%.

Turning to `COc1ccc(N2CCC(CN3CCC(C)CC3)C2=O)cc1` (stereo not shown) [Example 41], the inhibition in vivo at 10 mg/kg stood at 53%.

Take `O=C1C(CN2CCCCCC2)CCN1c1ccc(C2CCCCC2)cc1` (stereo not shown) [Example 64]: the inhibition in vivo at 10 mg/kg is 57%.

`CC(=O)C1CCN(CC2CCN(c3ccc(Cl)cc3)C2=O)CC1` (stereo not shown) [Example 45]: the inhibition in vivo at 10 mg/kg turned out to be 51%.

Another assay has as its target T1, α1 receptor (Rattus norvegicus, UniProt Q9R0C9).
T1 construct: whole brain of a rat except for the cerebellum and medulla; from tissue; host or cells: rat whole brain except cerebellum and medulla, homogenate
Kind of assay: radioreceptor assay (α1 [sic] receptor) with 3H-(+)pentazocine in rat whole brain homogenate (Pharmacological Test 1). In kind it is binding. Particulars: 3H-(+)pentazocine 5 nM, rat whole brain except cerebellum and medulla, 2 hours. The method, then: By modifying the Vilner et al. method [B. J. Vilner and W. D. Bowen: Mechanisms for Neuromodulation and neuroprotection? in Multiple Sigma and PCP Receptor Ligands, pp341 (1992) NPP Books], a radioreceptor assay was conducted with respect to the α1 receptor. A homogenate (10 mg/ml) of the whole brain of a rat except for the cerebellum and medulla was incubated together with each test drug and ^3 H-ligand [5 nM of ^3 H-(+)pentazocine (NEN)] for 2 hours. Brain tissue was filtered under suction through a glass fiber filter paper ("GF/B", trade name; manufactured by Whatman) using a cell harvester ("LL-12", trade name; manufactured by Brandel) and was washed twice, each with 3 ml of a buffer solution. The glass fiber filter paper was placed in a vial, to which 3.5 ml of a scintillator ("ACSII" trade name; product of Amersham International plc) were added. After being left for 10 hours, the amount of ^3 H-ligand bound to the receptor was measured by a liquid scintillation counter. Incidentally, (+)-pentazocine (10 μM) was used for the measurement of a blank.
Binding rates of ^3 H-ligand to the receptor at individual concentrations of each test drug were plotted to draw a graph by assuming that the binding rate without addition of the test drug was 100% and that when the blank substance was added was 0%. A concentration of the test drug, which would give a binding rate of 50%, was then determined and recorded as an IC50 value. From the IC50 value, the Ki value was determined in accordance with the following formula: [formula] KD represents the dissociation constant between ^3 H-ligand and the receptor, and was obtained by the Scatchard plotting of the bonding to the receptor when the concentration of ^3 H-ligand was varied.
In the case of `O=C1C(CN2CCCCC2)CCN1c1ccc(C(F)(F)F)cc1` (stereo not shown) [Example 74], the pKi is 8.36.

`CC1CCN(CC2CCN(c3ccc(Cl)c(Cl)c3)C2=O)CC1` (stereo not shown) [Example 33] showed a pKi of 8.15.

As to `O=C1C(CN2CCCCC2)CCN1c1cccc(Br)c1` (stereo not shown) [Example 13], the pKi is 8.89.

With `O=C1C(CN2CCCCC2)CCN1c1ccc(Cl)c(Cl)c1` (stereo not shown) [Example 2], the pKi is 8.55.

Take `O=C1C(CN2CCCCCCC2)CCN1c1ccc(Cl)c(Cl)c1` (stereo not shown) [Example 31]: the pKi is 8.92.

In turn, `COc1cccc(N2CCC(CN3CCC(C)CC3)C2=O)c1` (stereo not shown) [Example 43] had a pKi of 8.44.

In the case of `O=C1C(CN2CCCCC2)CCN1c1cccc(C(F)(F)F)c1` (stereo not shown) [Example 20], the pKi is 8.46.

`O=C1C(CN2CCCCCC2)CCN1c1ccc(Cl)cc1` (single isomer, unassigned; (-)) [Example 93 (-) form, (-) 1-(4-Chlorophenyl)-3-(hexahydro-1H-azepin-1-ylmethyl)-2-pyrrolidinone] had a pKi of 8.82.

The compound `CC1CCN(CC2(C)CCN(c3ccc(Cl)cc3)C2=O)CC1` (stereo not shown) [Example 49] showed a pKi of 8.52.

The compound `CC1CCN(CC2CCN(c3cccc(C(F)(F)F)c3)C2=O)CC1` (stereo not shown) [Example 11] showed a pKi of 8.68.

`O=C1C(CN2CCCCCC2)CCN1c1ccc(Cl)cc1` (stereo not shown) [Example 1] had a pKi of 8.57.

Consider `CC1CCN(CC2CCN(c3ccc(C(C)(C)C)cc3)C2=O)CC1` (stereo not shown) [Example 27], for which the pKi was 8.64.

The compound `O=C1C(CN2CCCCC2)CCN1c1cccc(Cl)c1` (stereo not shown) [Example 12] had a pKi of 8.33.

Turning to `O=C1C(CN2CCCCCC2)CCN1c1cccc(C(F)(F)F)c1` (stereo not shown) [Example 3], the pKi is 8.49.

`CCC1CCN(CC2CCN(c3ccc(Cl)cc3)C2=O)CC1` (stereo not shown) [Example 29] gave a pKi of 8.42.

Compound `COc1cccc(N2CCC(CN3CCCCCC3)C2=O)c1` (stereo not shown) [Example 44] gave a pKi of 8.23.

Compound `O=C1C(CN2CCCCCC2)CCN1c1ccc(Cl)cc1` (stereo not shown) [Example 82] gave a pKi of 8.70.

Consider `COC1CCN(CC2CCN(c3ccc(Cl)cc3)C2=O)CC1` (stereo not shown) [Example 75], for which the pKi is 8.10.
